This passage reports IC50 results from PMC3504386 (Chemmedchem, 2010).

What is called IC50 is the concentration at which inhibition is half-maximal. A low value points to greater potency.

For the experiment, the target named is T1, CTP synthetase (CTPS) (Trypanosoma brucei, UniProt Q4GZ95).
T1 construct: gene TB927.1.1240
Description: coupled spectrophotometric enzyme assay (pyruvate kinase/lactate dehydrogenase), […] min pre-incubation on ice. The format is biochemical.

T1 sequence (Q4GZ95 entry or part of it): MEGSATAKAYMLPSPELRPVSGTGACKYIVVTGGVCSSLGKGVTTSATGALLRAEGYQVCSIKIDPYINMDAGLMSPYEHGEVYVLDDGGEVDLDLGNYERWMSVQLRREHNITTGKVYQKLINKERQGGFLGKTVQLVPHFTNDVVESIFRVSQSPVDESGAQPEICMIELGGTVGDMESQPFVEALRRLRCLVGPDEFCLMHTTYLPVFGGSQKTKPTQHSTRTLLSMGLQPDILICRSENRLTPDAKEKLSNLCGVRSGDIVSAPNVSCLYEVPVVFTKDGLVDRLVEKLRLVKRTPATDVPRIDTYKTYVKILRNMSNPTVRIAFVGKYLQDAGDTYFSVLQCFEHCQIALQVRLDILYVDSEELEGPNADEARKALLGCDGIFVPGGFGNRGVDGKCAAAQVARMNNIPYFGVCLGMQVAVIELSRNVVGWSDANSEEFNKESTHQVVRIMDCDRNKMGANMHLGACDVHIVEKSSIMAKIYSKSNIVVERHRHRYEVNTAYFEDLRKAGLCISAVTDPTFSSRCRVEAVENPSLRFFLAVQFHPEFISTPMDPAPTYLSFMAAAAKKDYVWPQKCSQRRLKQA

Compound `N[C@H](C(=O)O)[C@@H]1CC(Cl)=NO1` [compound 1, Acivicin] yielded a half-inhibitory concentration (IC50) of 0.32 ± 0.025 µM. In the case of `N[C@H](C(=O)O)[C@@H]1CC(Br)=NO1` [compound 2, (αS,5S)-α-amino-3-bromo-4,5-dihydroisoxazol-5-yl acetic acid] it was 0.098 ± 0.01 µM.
